According to patent US6211212A, “Pyrrolidine and thiazole derivatives with metallo-beta-lactamase inhibitory properties” (SmithKline Beecham p.l.c., priority 1997, dated 2001):

Target: B.fragilis CfiA metallo-β-lactamase (Bacteroides fragilis, UniProt P25910)
Assay: I50 screen (nitrocefin reporter substrate)
Format: biochemical
Details: 25 μM PIPES pH 7, 37° C., nitrocefin 91 μM, 5 minute preincubation, Zn2+ 100 μM
Protocol: The inhibitory activity of the compounds of the invention was measured in 25 μM PIPES pH 7 buffer at 10 concentrations (1000, 333, 111, 37, 12.3, 4.1, 1.4, 0.46, 0.15 and 0.05 μM) at 37° C. using nitrocefin (91 μM final concentration) as the reporter substrate. The assays were performed with a 5 minute preincubation of enzyme and inhibitor and were conducted in the presence of added zinc sulphate (Zn^2+ 100 μM, final concentration). The methodology is described in detail in the following references: Payne et al (1991), J. Antimicrob. Chemother., 28:255; Payne et al (1994), Antimicrob. Agents and Chemother., 38:767.

Chain of B.fragilis CfiA metallo-β-lactamase (P25910 19-249): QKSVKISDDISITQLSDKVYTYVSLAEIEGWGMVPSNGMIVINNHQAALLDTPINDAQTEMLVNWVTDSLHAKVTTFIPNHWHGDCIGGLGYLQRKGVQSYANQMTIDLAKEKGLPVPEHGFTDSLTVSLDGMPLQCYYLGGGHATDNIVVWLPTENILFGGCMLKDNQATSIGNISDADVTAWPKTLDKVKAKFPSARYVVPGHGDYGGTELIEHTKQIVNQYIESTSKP

O=C(N[C@@H](C(=O)O)c1ccccc1)[C@H]1CCCC[C@H]1S (mixture of isomers) [Example E3, N-[2-(R,S)-Mercapto-1-(R,S)-cyclohexancarbonyl]-D-phenylglycine]
IC50: < 1000 nM
